Source: ChEMBL document CHEMBL5143608, “Peptide-based long-acting co-agonists of GLP-1 and cholecystokinin 1 receptors as novel anti-diabesity agents” (Eur J Med Chem, 2022)
The source made the active and inactive calls. No cut-off for these calls is given here. Where a SMILES comes first, the peptide text is derived from it. [ ]: non-standard residue; d: D form. Aib = CC(C)(N)C(=O)O

Assays:
Mus musculus [1] = experiment: Anorectic activity in ICR mouse assessed as decrease in food intake at 25 nmol/kg, ip and measured after 24 hrs; type: functional, organism-based
[2] = molecular target: T1, Cholecystokinin receptor type A (Homo sapiens, UniProt P32238); experiment: Agonist activity at human CCK1R expressed in HEK293 cells assessed as ERK1/2 phosphorylation incubated for 5 mins by AlphaScreen assay; type: functional, cell-based; conditions: hek293
T1 sequence (P32238 whole entry): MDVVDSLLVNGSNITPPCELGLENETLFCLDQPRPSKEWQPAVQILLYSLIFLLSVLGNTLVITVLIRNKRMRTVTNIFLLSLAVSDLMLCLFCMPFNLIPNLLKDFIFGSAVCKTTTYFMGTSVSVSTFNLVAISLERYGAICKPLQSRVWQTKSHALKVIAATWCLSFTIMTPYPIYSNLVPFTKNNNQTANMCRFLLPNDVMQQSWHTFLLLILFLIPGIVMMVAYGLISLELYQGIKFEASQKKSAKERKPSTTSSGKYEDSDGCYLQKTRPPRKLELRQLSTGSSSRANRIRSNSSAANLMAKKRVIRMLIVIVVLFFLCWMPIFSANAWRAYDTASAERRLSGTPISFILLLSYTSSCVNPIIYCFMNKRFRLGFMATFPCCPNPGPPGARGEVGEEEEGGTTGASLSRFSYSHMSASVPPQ

[3] = molecular target: T2, CCK2R (gastrin/cholecystokinin type B receptor) (Homo sapiens, UniProt P32239); experiment: Agonist activity at human CCK2R expressed in HEK293 cells assessed as ERK1/2 phosphorylation incubated for 5 mins by AlphaScreen assay; type: functional, cell-based; conditions: human, HEK293 cells expressing human CCK2R
T2 sequence (P32239 whole entry): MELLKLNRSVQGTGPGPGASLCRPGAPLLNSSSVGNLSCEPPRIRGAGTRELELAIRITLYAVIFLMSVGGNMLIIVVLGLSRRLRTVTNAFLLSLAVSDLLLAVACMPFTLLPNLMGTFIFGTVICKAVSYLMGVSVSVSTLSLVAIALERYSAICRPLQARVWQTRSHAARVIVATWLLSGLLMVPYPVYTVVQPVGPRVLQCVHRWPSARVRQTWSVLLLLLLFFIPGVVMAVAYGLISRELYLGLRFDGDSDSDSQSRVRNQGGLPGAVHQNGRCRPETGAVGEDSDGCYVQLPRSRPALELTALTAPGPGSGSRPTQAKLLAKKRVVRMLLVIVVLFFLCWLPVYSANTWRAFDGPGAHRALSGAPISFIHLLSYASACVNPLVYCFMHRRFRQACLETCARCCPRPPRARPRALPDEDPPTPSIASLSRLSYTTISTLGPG

Mus musculus [4] = experiment: Anorectic activity in ICR mouse assessed as decrease in food intake at 25 nmol/kg, ip and measured after 9 hrs; type: functional, organism-based
[5] = molecular target: Glucagon-like peptide 1 receptor (Homo sapiens, UniProt P43220); experiment: Agonist activity at human GLP-1R expressed in HEK293 cells assessed as cAMP release incubated for 20 min by HTRF analysis; type: functional, cell-based
Mus musculus [6] = experiment: Hypoglycemic activity in ICR mouse assessed as improvement in glucose tolerance at 25 nmol/kg, ip administered 30 min before oral glucose administration and measured upto 120 mins by OGTT; type: functional, organism-based

Glucagon-like peptide 1 receptor, sequence (P43220 whole entry): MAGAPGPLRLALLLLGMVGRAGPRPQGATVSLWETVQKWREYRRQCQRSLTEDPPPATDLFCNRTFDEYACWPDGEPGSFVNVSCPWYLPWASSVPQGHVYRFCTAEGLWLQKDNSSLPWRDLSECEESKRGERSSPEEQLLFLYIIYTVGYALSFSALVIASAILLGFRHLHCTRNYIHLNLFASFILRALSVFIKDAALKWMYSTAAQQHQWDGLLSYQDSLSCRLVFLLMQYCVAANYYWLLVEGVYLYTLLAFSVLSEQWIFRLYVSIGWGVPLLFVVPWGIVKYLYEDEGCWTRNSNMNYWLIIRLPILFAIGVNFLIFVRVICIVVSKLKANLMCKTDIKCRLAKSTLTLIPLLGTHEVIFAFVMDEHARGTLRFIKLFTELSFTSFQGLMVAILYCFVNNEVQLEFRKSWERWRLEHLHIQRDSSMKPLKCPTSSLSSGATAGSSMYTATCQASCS

EC50 [2] [nM]	EC50 [5] [nM]	EC50 ([5]; hek293) [nM]	Structure (SMILES)	Activity (Mus musculus [1])	EC50 at 5 min [3] [nM]	Activity (Mus musculus [4])	Activity (Mus musculus [6])
1.19	–	–	CCCC[C@H](NC(=O)[C@H](Cc1ccc(CS(=O)(=O)O)cc1)NC(=O)[C@H](CC(=O)O)NC(=O)COCCOCCNC(=O)COCCOCCNC(=O)[C@H](CCCNC(=N)N)NC(=O)CNC(=O)[C@H](CCCCNC(=O)COCCOCCNC(=O)COCCOCCNC(=O)CC[C@H](NC(=O)CCCCCCCCCCCCCCCCC(=O)O)C(=O)O)NC(=O)[C@@H](NC(=O)[C@H](CC(C)C)NC(=O)[C@H](Cc1c[nH]c2ccccc12)NC(=O)[C@H](C)NC(=O)[C@@H](NC(=O)[C@H](Cc1ccccc1)NC(=O)[C@H](CCC(=O)O)NC(=O)[C@H](CCCCN)NC(=O)[C@H](C)NC(=O)[C@H](C)NC(=O)[C@H](CCC(N)=O)NC(=O)CNC(=O)[C@H](CCC(=O)O)NC(=O)[C@H](CC(C)C)NC(=O)[C@H](Cc1ccc(O)cc1)NC(=O)[C@H](CO)NC(=O)[C@H](CO)NC(=O)[C@@H](NC(=O)[C@H](CC(=O)O)NC(=O)[C@H](CO)NC(=O)[C@@H](NC(=O)[C@H](Cc1ccccc1)NC(=O)[C@@H](NC(=O)CNC(=O)[C@H](CCC(=O)O)NC(=O)[C@H](C)NC(=O)[C@@H](N)Cc1cnc[nH]1)[C@@H](C)O)[C@@H](C)O)C(C)C)[C@@H](C)CC)C(C)C)C(=O)NCC(=O)N[C@@H](Cc1c[nH]c2ccccc12)C(=O)N[C@@H](CCCC)C(=O)N(C)[C@H](CC(=O)O)C(=O)N(C)[C@@H](Cc1ccccc1)C(N)=O	Active	> 100	Active	–
–	0.056	–	CC[C@H](C)[C@H](NC(=O)[C@H](CC(C)C)NC(=O)[C@H](Cc1c[nH]c2ccccc12)NC(=O)[C@H](CCC(=O)O)NC(=O)[C@@H](NC(=O)[C@H](Cc1ccccc1)NC(=O)[C@H](CCC(=O)O)NC(=O)[C@H](CCCCN)NC(=O)[C@H](C)NC(=O)[C@H](C)NC(=O)[C@H](CCC(=O)O)NC(=O)[C@H](CCC(=O)O)NC(=O)[C@H](CCC(=O)O)NC(=O)[C@H](CC(C)C)NC(=O)[C@@H](NC(=O)[C@H](CCC(=O)O)NC(=O)[C@@H](NC(=O)[C@@H](NC(=O)[C@H](CC(=O)O)NC(=O)[C@H](CC(N)=O)NC(=O)[C@@H](NC(=O)[C@H](Cc1ccc(O)cc1)NC(=O)[C@@H](NC(=O)CNC(=O)[C@H](CCC(=O)O)NC(=O)C(C)(C)NC(=O)[C@@H](N)Cc1cnc[nH]1)[C@@H](C)O)[C@@H](C)O)C(C)C)[C@@H](C)O)[C@@H](C)O)[C@@H](C)CC)C(=O)N[C@@H](CCCCN)C(=O)NCC(=O)N[C@@H](CCCCN)C(N)=O (H-H[Aib]EGTYTNDVTETLEEEAAKEFIEWLIKGK-NH2)	–	–	–	–
1.14	–	–	CCCC[C@H](NC(=O)[C@H](Cc1ccc(CS(=O)(=O)O)cc1)NC(=O)[C@H](CC(=O)O)NC(=O)COCCOCCNC(=O)COCCOCCNC(=O)[C@H](CCCNC(=N)N)NC(=O)CNC(=O)[C@H](CCCCN)NC(=O)[C@@H](NC(=O)[C@H](CC(C)C)NC(=O)[C@H](Cc1c[nH]c2ccccc12)NC(=O)[C@H](C)NC(=O)[C@@H](NC(=O)[C@H](Cc1ccccc1)NC(=O)[C@H](CCC(=O)O)NC(=O)[C@H](CCCCN)NC(=O)[C@H](C)NC(=O)[C@H](C)NC(=O)[C@H](CCC(N)=O)NC(=O)CNC(=O)[C@H](CCC(=O)O)NC(=O)[C@H](CC(C)C)NC(=O)[C@H](Cc1ccc(O)cc1)NC(=O)[C@H](CO)NC(=O)[C@H](CO)NC(=O)[C@@H](NC(=O)[C@H](CC(=O)O)NC(=O)[C@H](CO)NC(=O)[C@@H](NC(=O)[C@H](Cc1ccccc1)NC(=O)[C@@H](NC(=O)CNC(=O)[C@H](CCC(=O)O)NC(=O)[C@H](C)NC(=O)[C@@H](N)Cc1cnc[nH]1)[C@@H](C)O)[C@@H](C)O)C(C)C)[C@@H](C)CC)C(C)C)C(=O)NCC(=O)N[C@@H](Cc1c[nH]c2ccccc12)C(=O)N[C@@H](CCCC)C(=O)N(C)[C@H](CC(=O)O)C(=O)N(C)[C@@H](Cc1ccccc1)C(N)=O	Active	> 100	Active	Active
0.95	–	0.092	CCCC[C@H](NC(=O)[C@H](Cc1ccc(CS(=O)(=O)O)cc1)NC(=O)[C@H](CC(=O)O)NC(=O)COCCOCCNC(=O)COCCOCCNC(=O)[C@H](CCCCN)NC(=O)CNC(=O)[C@H](CCCCN)NC(=O)[C@@H](NC(=O)[C@H](CC(C)C)NC(=O)[C@H](Cc1c[nH]c2ccccc12)NC(=O)[C@H](CCC(=O)O)NC(=O)[C@@H](NC(=O)[C@H](Cc1ccccc1)NC(=O)[C@H](CCC(=O)O)NC(=O)[C@H](CCCCN)NC(=O)[C@H](C)NC(=O)[C@H](C)NC(=O)[C@H](CCC(=O)O)NC(=O)[C@H](CCC(=O)O)NC(=O)[C@H](CCC(=O)O)NC(=O)[C@H](CC(C)C)NC(=O)[C@@H](NC(=O)[C@H](CCC(=O)O)NC(=O)[C@@H](NC(=O)[C@@H](NC(=O)[C@H](CC(=O)O)NC(=O)[C@H](CC(N)=O)NC(=O)[C@@H](NC(=O)[C@H](Cc1ccc(O)cc1)NC(=O)[C@@H](NC(=O)CNC(=O)[C@H](CCC(=O)O)NC(=O)C(C)(C)NC(=O)[C@@H](N)Cc1cnc[nH]1)[C@@H](C)O)[C@@H](C)O)C(C)C)[C@@H](C)O)[C@@H](C)O)[C@@H](C)CC)[C@@H](C)CC)C(=O)NCC(=O)N[C@@H](Cc1c[nH]c2ccccc12)C(=O)N[C@@H](CCCC)C(=O)N(C)[C@H](CC(=O)O)C(=O)N(C)[C@@H](Cc1ccccc1)C(N)=O	Active	> 100	Active	Active
1.03	–	0.31	CCCC[C@H](NC(=O)[C@H](Cc1ccc(CS(=O)(=O)O)cc1)NC(=O)[C@H](CC(=O)O)NC(=O)COCCOCCNC(=O)COCCOCCNC(=O)[C@H](CCCCN)NC(=O)CNC(=O)[C@H](CCCCNC(=O)COCCOCCNC(=O)COCCOCCNC(=O)CC[C@H](NC(=O)CCCCCCCCCCCCCCCCC(=O)O)C(=O)O)NC(=O)[C@@H](NC(=O)[C@H](CC(C)C)NC(=O)[C@H](Cc1c[nH]c2ccccc12)NC(=O)[C@H](CCC(=O)O)NC(=O)[C@@H](NC(=O)[C@H](Cc1ccccc1)NC(=O)[C@H](CCC(=O)O)NC(=O)[C@H](CCCCN)NC(=O)[C@H](C)NC(=O)[C@H](C)NC(=O)[C@H](CCC(=O)O)NC(=O)[C@H](CCC(=O)O)NC(=O)[C@H](CCC(=O)O)NC(=O)[C@H](CC(C)C)NC(=O)[C@@H](NC(=O)[C@H](CCC(=O)O)NC(=O)[C@@H](NC(=O)[C@@H](NC(=O)[C@H](CC(=O)O)NC(=O)[C@H](CC(N)=O)NC(=O)[C@@H](NC(=O)[C@H](Cc1ccc(O)cc1)NC(=O)[C@@H](NC(=O)CNC(=O)[C@H](CCC(=O)O)NC(=O)C(C)(C)NC(=O)[C@@H](N)Cc1cnc[nH]1)[C@@H](C)O)[C@@H](C)O)C(C)C)[C@@H](C)O)[C@@H](C)O)[C@@H](C)CC)[C@@H](C)CC)C(=O)NCC(=O)N[C@@H](Cc1c[nH]c2ccccc12)C(=O)N[C@@H](CCCC)C(=O)N(C)[C@H](CC(=O)O)C(=O)N(C)[C@@H](Cc1ccccc1)C(N)=O	Active	> 100	Active	Active
